# Test results published in US10390553B2, “Food containing histidine and use thereof” (AJINOMOTO CO., INC., priority 2013, dated 2019).
# Experiments:
# [1] = test system: males feeling decrease in the sleep quality and fatigue; assay: Cognitive function measurement task CogHealth, histidine ingestion for 14 days; assay type: in vivo, human; details: 1.65 g daily for 14 days vs control food
# Description: (§1) Twenty males of 45 years old to less than 65 years old, who received total evaluation of not less than 17 points in the “self-diagnosis fatigue questionnaire” (Fatigue Science Laboratory Inc.) performed in advance, felt decrease in the quality of sleep (generally PSQI≥6), and obtained fatigue factor T scores of not less than 60 points in POMS, were selected, and randomly divided into 2 groups (10 per group). A crossover test, including ingesting histidine and control food (equal volume of cellulose) each for 14 days, was performed in each group. As shown in the experiment protocol of FIG. 4A, the test subjects ingested capsules containing 1.65 g of L-histidine as a daily ingestion amount (5 capsules (hard capsule #2 WHITE OP B/C) containing 0.33 g of L-histidine alone), or control sample capsules (5 capsules containing equal volume of cellulose) for 14 days. After the completion of 14 day ingestion, a 14 day resting period was taken. After the resting period, they ingested the capsules not ingested before the resting period. […]
# [2] = test system: CD2F1 mice after burden of insufficient sleep; assay: Y-maze test, short-working memory after burden of insufficient sleep, single histidine administration; assay type: in vivo, mouse; details: single oral dose 1.2 g/kg body weight at ZT14; Y-maze at ZT15; SD+His vs SD+solvent
# Description: Using CD2F1 mice (9-week-old) and as shown in the experiment protocol of FIG. 3A, a burden of insufficient sleep is applied to sleep disorder group (SD) for two days. The burden was released at ZT6, and the mice were placed back in the home cage and allowed to rest for 6 hr. The control group (CON) was reared without burden in the home cage. A L-histidine solution was orally administered to a histidine administration group (SD+His) at 2 hr after the start of the dark phase after burden of insufficient sleep (ZT14), to achieve an L-histidine dose of 1.2 g/kg body weight. A solvent (water) was orally administered to the solvent administration group (SD+solvent) and the control group (CON). The Y-maze test was performed at 3 hr from the start of the dark phase (ZT15), and short-working memory was measured.
# [3] = test system: CD2F1 mice after burden of insufficient sleep; assay: Locomotor activities in the dark phase after burden of insufficient sleep, continuous histidine administration; assay type: in vivo, mouse; details: 1.2 w/v % L-histidine solution drunk for 7 days, 1.2 g/kg body weight/day; SD+His vs SD+solvent
# Description: Using CD2F1 mice (9-week-old) and as shown in the experiment protocol of FIG. 1A, the mice were chronically allowed to drink a 1.2 w/v % L-histidine solution for 7 days in the histidine ingestion group (SD+His) to achieve a dose of 1.2 g/kg body weight/day. Water was given to the control group (CON) and the solvent ingestion group (SD+solvent). Then, the sleep disorder group (SD) was burdened by insufficient sleep for one day by filling water in the breeding cage at the depth of 0.5 cm. The burden was released at 6 hr from the start of the light phase (ZT6), and the mice were placed back in the home cage and allowed to rest for 6 hr. The control group was reared without burden in the home cage. Thereafter, they were transferred into a cage set under a locomotor activity measurement infrared sensor (Digital acquisition system; NS-DAS-32, Neuroscience Inc, Tokyo, Japan) under fasting and water-deprivation. The locomotor activities were measured and the data was collected by a multidigital counter (Neuroscience Inc, Tokyo, Japan).
# [4] = test system: males feeling decrease in the sleep quality and fatigue; assay: POMS after histidine ingestion for 14 days (crossover vs control food); assay type: in vivo, human; details: 1.65 g L-histidine daily for 14 days vs control food; paired t-test p<0.05
# Description: as §1
# [5] = test system: males feeling decrease in the quality of sleep and fatigue; assay: Safety of histidine ingestion: general properties, hematology, blood biochemistry; assay type: in vivo, human; details: 2 weeks continuous and single, 1.65 g
# Description: Twenty males of 45 years old to less than 65 years old, who received total evaluation of not less than 17 points in the “self-diagnosis fatigue questionnaire” (Fatigue Science Laboratory Inc.) performed in advance, felt decrease in the quality of sleep (generally PSQI≥6), and obtained fatigue factor T scores of not less than 60 points in POMS, were selected, and randomly divided into 2 groups (10 per group). A crossover test, including ingesting histidine and control food (equal volume of cellulose) each for 14 days, was performed in each group.
# As shown in the experiment protocol of FIG. 4A, the test subjects ingested capsules containing 1.65 g of L-histidine as a daily ingestion amount (5 capsules (hard capsule #2 WHITE OP B/C) containing 0.33 g of L-histidine alone), or control sample capsules (5 capsules containing equal volume of cellulose) for 14 days. After the completion of 14 day ingestion, a 14 day resting period was taken. After the resting period, they ingested the capsules not ingested before the resting period. […]
# [6] = test system: males feeling decrease in the quality of sleep and fatigue; assay: VAS questionnaires relating to mental energy, single histidine ingestion; assay type: in vivo, human; details: single ingestion 1.65 g
# Description: (§2) Twenty males of 45 years old to less than 65 years old, who received total evaluation of not less than 17 points in the “self-diagnosis fatigue questionnaire” (Fatigue Science Laboratory Inc.) performed in advance, felt decrease in the quality of sleep (generally PSQI≥6), and obtained fatigue factor T scores of not less than 60 points in POMS, were selected, and randomly divided into 2 groups (10 per group). The effect of single ingestion of histidine and control food (equal volume of cellulose) was compared in each group. As shown in the experiment protocol of FIG. 5A, the test subjects took the same meals for 3 days before the experiment, fasted for 10 to 14 hr, and ingested capsules containing 1.65 g of L-histidine as a single ingestion amount (5 capsules (hard capsule #2 WHITE OP B/C) containing 0.33 g of L-histidine alone), or control sample capsules (5 capsules containing equal volume of cellulose). Before and 1 hr after ingestion of capsules, the test subjects answered the VAS questionnaires (fatigue, depression, vague sense, drowsiness, clear thinking, motivation, attentiveness, concentration) relating to mental energy, and cognitive function measurement task CogHealth (under conditions with higher difficulty by simultaneously including mental arithmetic task as well) to measure recognition. Furthermore, they answered VAS questionnaires after completion of CogHealth.
# [7] = test system: males feeling decrease in the quality of sleep and fatigue; assay: Cognitive function measurement task CogHealth, single histidine ingestion; assay type: in vivo, human; details: single ingestion 1.65 g, 1 hr after ingestion, vs control food
# Description: as §2
# [8] = test system: CD2F1 mice after burden of insufficient sleep; assay: Locomotor activities under novel environment after burden of insufficient sleep, single histidine administration; assay type: in vivo, mouse; details: single oral dose 1.2 g/kg body weight at ZT14; measured for 3 hr from ZT15; SD+His vs SD+solvent
# Description: Using CD2F1 mice (9-10-week-old) and as shown in the experiment protocol of FIG. 2A, a burden of insufficient sleep is applied to sleep disorder group (SD) for one day. The burden was released at ZT6, and the mice were placed back in the home cage and allowed to rest for 6 hr. The control group (CON) was reared without burden in the home cage. A 1.2 w/v % L-histidine solution was orally administered to a histidine administration group (SD+His) at 2 hr after the start of the dark phase after burden of insufficient sleep (ZT14), to achieve an L-histidine dose of 1.2 g/kg body weight. A solvent (water) was orally administered to the solvent administration group (SD+solvent) and the control group (CON). The locomotor activities under novel environment were measured for 3 hr from 3 hr after the start of the dark phase (ZT15).
# [9] = test system: males feeling decrease in the sleep quality and fatigue; assay: VAS questionnaires relating to mental energy, histidine ingestion for 14 days; assay type: in vivo, human; details: 1.65 g daily for 14 days vs control food, p<0.05
# Description: Twenty males of 45 years old to less than 65 years old, who received total evaluation of not less than 17 points in the “self-diagnosis fatigue questionnaire” (Fatigue Science Laboratory Inc.) performed in advance, felt decrease in the quality of sleep (generally PSQI≥6), and obtained fatigue factor T scores of not less than 60 points in POMS, were selected, and randomly divided into 2 groups (10 per group). A crossover test, including ingesting histidine and control food (equal volume of cellulose) each for 14 days, was performed in each group. As shown in the experiment protocol of FIG. 4A, the test subjects ingested capsules containing 1.65 g of L-histidine as a daily ingestion amount (5 capsules (hard capsule #2 WHITE OP B/C) containing 0.33 g of L-histidine alone), or control sample capsules (5 capsules containing equal volume of cellulose) for 14 days. After the completion of 14 day ingestion, a 14 day resting period was taken. After the resting period, they ingested the capsules not ingested before the resting period. On the initial day and the day after completion of the capsule ingestion period, the test subjects answered POMS and the VAS questionnaires (fatigue, depression, vague sense, drowsiness, clear thinking, motivation, attentiveness, concentration) relating to mental energy, and cognitive function measurement task CogHealth (under higher difficulty conditions by simultaneously including mental arithmetic task as well) to measure recognition. Furthermore, they answered VAS questionnaires after completion of CogHealth.
# [10] = test system: clock genes (Bmal1, Dbp, Per1, Per2, Reverb-alpha); assay: Oscillation of expression of clock genes of the auricle in aged mice; assay type: in vivo, mouse; details: aged mice 22 to 24 months, 1.2 w/v % L-histidine solution for 9 days
# Procedure: Aged mice of 22 to 24 months of age being reared under generally light and dark environment were divided into two groups, and the effect of the ingestion of histidine drinking solution was studied. The histidine ingestion period was set to 9 days, during which period aqueous L-histidine solution (corresponding to L-histidine 1.2 w/v %) was given for ingestion by mounting a water inlet on a 50 mL centrifuge tube, whereby about 1.2 g/kg body weight of histidine was ingested per day. In the histidine ingestion group of aged mice, samples were taken from the auricle by changing the position over time on 8 to 9 days from the start of the ingestion of the aqueous histidine solution, and 5 kinds of clock genes (Bmal1, Dbp, Per1, Per2, Reverb-alpha) of the peripheral tissue were analyzed as an index of biorhythm. In the simultaneous stage, the clock genes of the auricle of the aged mice and young mice (4 months old) that ingested tap water were analyzed as comparison targets. […] To be specific, gene expression of the clock gene was quantified at each time point, and the amplitudes and phase of the oscillation of expression of the clock gene of each individual were determined by approximation on the cosine curve. […]
# [11] = test system: mouse reared under 24 hr dark conditions; assay: Biorhythm phase regulating action, locomotor behavioral pattern in free run cycle under 24 hr dark conditions; assay type: in vivo; details: for phase shift of the behavior start time (circadian rhythm): feed with 45 mg L-histidine per 1 g, 4 hours per day for 4 days
# Procedure: A phase regulating action of histidine on a mouse reared under 24 hr dark conditions was evaluated. When a mouse is reared under 24 hr dark conditions, the mouse starts to act in a cycle specific to the biological clock (also referred to as free run, meaning freed from synchrony), since the outside information (light-dark cycle of light) cannot be obtained. When the free run cycle is converted to 24 hr and indicated as circadian time on the horizontal axis, 12 hours of the former half thereof is called a subjective light period (time zone judged to be daytime by biological clock: CT0-12), and the latter half is called a subjective dark period (time zone judged to be night by biological clock: CT12-24). Under such conditions, locomotor activity of mice (behavioral pattern in free run cycle) was measured using an emission infrared detector type locomotor activities sensor (Digital acquisition system; NS-AS01, Neuroscience Inc, Tokyo, Japan). Furthermore, a feed added with 45 mg of L-histidine per 1 g of a general feed was prepared, and used to replace the general feed for only 4 hours in one day to allow for ingestion. The time zone for ingestion was CT2-6 (subjective light period) or CT14-18 (subjective dark period). Such replacement of the feed was performed for 4 days, and change of phase of the behavioral pattern was judged.
# [12] = 1 hr after ingestion, before cognitive functioning test, p<0.05
# [13] = before cognitive functioning test
structure (smiles),measurement,setting,value
"N[C@@H](Cc1c[nH]cn1)C(=O)O [histidine, L-histidine]",reaction time of cognitive function measurement task,[1],shortened
same,reaction time of delayed recall task,[1]; paired t-test p<0.05,significantly decreased
same,alternation behavior (short-working memory),[2],significant suppression of a decrease of alternation behavior
same,locomotor activities in the dark phase,[3],significant suppression of a decrease of locomotor activities in the dark phase
same,fatigue factor scores of POMS,[4],significantly decreased
same,"variation in general properties, hematology, and blood biochemistry",[5],did not show problematic variation
same,VAS sense of concentration,"[6]; 1 hr after ingestion, before cognitive functioning test",tended to increase
same,VAS sense of attentiveness,[6]; [12],significantly increased
same,VAS sense of clear thinking,[6]; [12],significantly increased
same,VAS sense of concentration,[6]; after completion of CogHealth,tended to increase
same,VAS sense of depression,[6]; after completion of CogHealth,tended to decrease
same,VAS sense of vagueness,"[6]; after completion of CogHealth, p<0.05",significantly decreased
same,indices relating to cognition,[7],did not show a significant change
same,work time in 5 kinds of brain function measurement indices,[7],shortened
same,locomotor activities under novel environment,[8],tendency of suppression of a decrease in the locomotor activities
same,VAS sense of attentiveness,[9]; after completion of CogHealth,significantly increased
same,VAS sense of depression,[9]; after completion of CogHealth,significantly decreased
same,VAS sense of motivation,[9]; after completion of CogHealth,significantly increased
same,VAS sense of attentiveness,[9]; [13],significantly increased
same,VAS sense of clear thinking,[9]; [13],significantly increased
same,VAS sense of motivation,[9]; [13],significantly increased
same,phase of the oscillation of expression of the clock gene,"[10]; about 1.2 g/kg body weight per day, vs aged mice on tap water",suppressed phase advancement
same,average phase of measured 5 clock genes compared to young mice,[10]; compared to young mice (4 months old),reached the same level as in young mice
same,phase shift of the behavior start time (circadian rhythm),[11]; ingestion in CT2-6 (subjective light period),significantly advances
same,phase shift of the behavior start time (circadian rhythm),[11]; ingestion in CT14-18 (subjective dark period),tended to advance
same,"shortening of the cycle of activity rhythm, mean","[11]; ingestion of histidine in CT2-6, n=4",0.34 ± 0.08 h
